Results from US8148070B2, “Genetic polymorphisms associated with coronary events and drug response, methods of detection and uses thereof” (Celera Corporation, priority 2007, dated 2012).

Key:
Type in all cases: in vivo, human
WOSCOPS patients = assay: WOSCOPS nested case-control study: pravastatin vs placebo, primary CHD in subgroups defined by genotype; settings: for Case (patients with coronary event): pravastatin arm; for risk reduction (coronary events) / OR, Effect of Pravastatin on MI and CHD: pravastatin vs placebo
Description: In order to identify genetic markers associated with CHD (particularly MI, including recurrent MI) or the effect of statin treatment on CHD, samples were genotyped in two clinical trials: the Cholesterol and Recurrent Events (CARE) study (a randomized multicentral double-blinded trial on secondary prevention of MI with pravastatin (Pravachol®); Sacks et al., Am. J. Cardiol. 68: 1436-1446 [1991]), and the West of Scotland Coronary Prevention Study (WOSCOPS) study (a randomized multicentral double-blinded trial on primary prevention of CHD with pravastatin (Pravachol®); Shepherd et al., N Eng J Med 333 (20), pp. 1301-7, Nov. 16, 1995; Packard et al., N Eng J Med 343 (16), pp. 1148-55, Oct. 19, 2000).
The designs of the original WOSCOPS cohort and the nested case-control study have been described (Shepherd et al., N Eng J Med 333 (20), pp. 1301-7, Nov. 16, 1995; Packard et al., N Eng J Med 343 (16), pp. 1148-55, Oct. 19, 2000). The objective of the WOSCOPS trial was to assess pravastatin efficacy at reducing risk of primary MI or coronary death among Scottish men with hypercholesterolemia (fasting LDL cholesterol>155 mg/dl). Participants in the WOSCOPS study were 45-64 years of age and followed for an average of 4.9 years for coronary events. The nested case-control study included as cases all WOSCOPS patients who experienced a coronary event (confirmed nonfatal MI, death from CHD, or a revascularization procedure; N=580). Controls were age- and smoking-matched to unaffected patients.
In analyzing the CARE patients, statistical analysis was performed with SAS version 9. Cox proportional hazard models (Wald tests) were used in CARE to assess the association of genotype with both the risk of incident MI in the placebo arm and the effect of pravastatin on MI compared to placebo in subgroups defined by genotypes. In analyzing the WOSCOPS patients, a conditional logistic regression model was used in WOSCOPS given that the controls had been previously matched to the cases. The column entitled “On-trial MI” lists the number of patients who suffered a recurrent MI during the clinical trial period.
HR stands for Hazard Ratio, which is a concept similar to Odds Ratio (OR). The HR in event-free survival analysis is the effect of an explanatory variable on the hazard or risk of an event. For examples, it describes the likelihood of developing MI based on comparison of rate of coronary events between carriers of the certain allele and noncarriers; therefore, HR=1.5 would mean that carriers of the certain allele have 50% higher risk of coronary events during the study follow up than non-carriers. HR can also describe the effect of statin therapy on coronary events based on comparison of rate of coronary events between patient treated with statin and patient treated with placebo (or other statin) in subgroups defined by SNP genotype; therefore, HR=0.5 would mean that, for example, carriers of the certain allele, had 50% reduction of coronary events by statin therapy as compared to placebo. In Table 6, p interaction values were calculated. An interaction (or effect modification) is formed when a third variable modifies the relation between an exposure and outcome. […] Genotype and drug interaction is present when the effect of statins (incidence rate of disease in statin-treated group, as compared to placebo) differs in patients with different genotypes. The hCV3054799 risk allele predicted risk of MI in CARE and was associated with odds of CHD in WOSCOPS.

[1] = tested on: elderly men and women (ages 70-82); assay: PROSPER trial: pravastatin vs placebo, coronary events in elderly by KIF6 719Arg carrier status; settings: for hazard ratio (coronary events, pravastatin vs placebo) / Hazard ratio: PROSPER; for hazard ratio (coronary events, pravastatin vs placebo): ages 70-82; for event (number of patients) / no event (number of patients): pravastatin arm of PROSPER; for Hazard ratio: pravastatin vs placebo, risk of CHD
Method: In this analysis, the KIF6 Trp719Arg polymorphism was analyzed in samples from the “Prospective Study of Pravastatin in the Elderly at Risk” (PROSPER) trial (PROSPER is described further in Shepherd et al., Lancet. 2002 Nov. 23; 360(9346):1623-30). PROSPER was both a secondary and primary trial of elderly men and women (ages 70-82). […] Since an interaction has been observed between KIF6 carrier status and prior vascular events, groups with and without prior vascular events were genotyped separately.
5752 patients were genotyped within the PROSPER trial, and Cox proportional hazards models were used to investigate (1) the risk for coronary events in 719Arg carriers compared with noncarriers in a placebo arm, and (2) the effect of statin therapy according to 719Arg carrier status in a pravastatin arm.
To assess the effect of pravastatin, risk estimates were used to compare the pravastatin arm with the placebo arm in subgroups defined by genotypes.

PROVE-IT patients = assay: PROVE-IT (PROVE IT-TIMI 22) genetic study: high-dose atorvastatin vs standard-dose pravastatin, death or major cardiovascular events by KIF6 719Arg carrier status
Method: Patients were followed for 18 to 36 months, with an average follow-up of 24 months.
Of the 1,724 patients who met the criteria listed above, 1344 (78.0%) were male. […] This study was approved by institutional review boards of the Brigham and Women's Hospital and all participating centers.
KIF6 genotypes were determined using allele—specific real-time PCR as previously described. Cox proportional hazard models (Wald tests) were used to assess the effect of atorvastatin-treatment on incident CHD in the KIF6 719Arg carriers and noncarriers. Continuous variables tested were age, baseline LDL-C, and baseline HDL-C levels. Categorical variables tested were smoking (current versus non-current), hypertension, and baseline diabetes. All reported p values are two-sided.

[2] = carrier (minor homozygote + heterozygote)

SMILES: CC[C@H](C)C(=O)O[C@H]1C[C@H](O)C=C2C=C[C@H](C)[C@H](CC[C@@H](O)C[C@@H](O)CC(=O)O)[C@H]21 [Pravastatin, pravastatin]
- OR, Adjusted (CHD, pravastatin vs placebo) (WOSCOPS patients; AA (noncarriers), matched and adjusted): 0.91
- OR, Matched (CHD, pravastatin vs placebo) (WOSCOPS patients; AA (noncarriers), matched for age and smoking): 0.94
- Case (patients with coronary event) (WOSCOPS patients; AA, 213 controls): 81 number of patients
- OR, Matched (CHD, pravastatin vs placebo) (WOSCOPS patients; GG + GA (719Arg carriers), cases and controls matched for age and smoking): 0.50
- OR, Adjusted (CHD, pravastatin vs placebo) (WOSCOPS patients; GG + GA (719Arg carriers), matched and adjusted for hypertension, diabetes, BMI, LDL-C, HDL-C): 0.50
- Case (patients with coronary event) (WOSCOPS patients; GG + GA, 330 controls): 108 number of patients
- risk reduction (coronary events) (WOSCOPS patients; carriers of the KIF6 719Arg allele, significant): 50%
- risk reduction (coronary events) (WOSCOPS patients; noncarriers, insignificant): 9%
- OR, Effect of Pravastatin on MI and CHD (WOSCOPS patients; hCV3054808 genotype AA): 0.55
- OR, Effect of Pravastatin on MI and CHD (WOSCOPS patients; hCV3054808 genotype AC): 0.52
- OR, Effect of Pravastatin on MI and CHD (WOSCOPS patients; hCV3054808 genotype CC): 0.89
- OR, Effect of Pravastatin on MI and CHD (WOSCOPS patients; hCV3054813 genotype CC): 0.64
- OR, Effect of Pravastatin on MI and CHD (WOSCOPS patients; hCV3054813 genotype CT): 0.51
- OR, Effect of Pravastatin on MI and CHD (WOSCOPS patients; hCV3054813 genotype TT): 0.95
- OR, Effect of Pravastatin on MI and CHD (WOSCOPS patients; hCV29992177 genotype AA): 0.71
- OR, Effect of Pravastatin on MI and CHD (WOSCOPS patients; hCV29992177 genotype GA): 0.54
- OR, Effect of Pravastatin on MI and CHD (WOSCOPS patients; hCV29992177 genotype GG): 2.55
- OR, Effect of Pravastatin on MI and CHD (WOSCOPS patients; hCV30225864 genotype CC): 0.67
- OR, Effect of Pravastatin on MI and CHD (WOSCOPS patients; hCV30225864 genotype CT): 0.54
- OR, Effect of Pravastatin on MI and CHD (WOSCOPS patients; hCV30225864 genotype TT): 0.78
- hazard ratio (coronary events, pravastatin vs placebo) ([1]; 719Arg carriers with prior vascular disease): 0.67
- hazard ratio (coronary events, pravastatin vs placebo) ([1]; noncarriers with prior vascular disease): 0.92
- event (number of patients) [1, 2]: 103
- no event (number of patients) [1, 2]: 657
- event (number of patients) ([1]; rs20455 genotype AA): 80
- no event (number of patients) ([1]; rs20455 genotype AA): 456
- event (number of patients) ([1]; rs20455 genotype AG): 85
- no event (number of patients) ([1]; rs20455 genotype AG): 501
- event (number of patients) ([1]; rs20455 genotype GG): 18
- no event (number of patients) ([1]; rs20455 genotype GG): 156
- Hazard ratio ([1]; KIF6 719Arg carrier, Model 1 unadjusted): 0.67
- Hazard ratio ([1]; KIF6 719Arg carrier, Model 2 adjusted for age, sex and smoking status): 0.67
- Hazard ratio ([1]; KIF6 719Arg carrier, Model 3 adjusted for age, sex, smoking status, history of hypertension, LDL, HDL and history of diabetes): 0.67
- Hazard ratio ([1]; KIF6 rs20455 heterozygote, Model 1 unadjusted): 0.67
- Hazard ratio ([1]; KIF6 rs20455 heterozygote, Model 2 adjusted for age, sex and smoking status): 0.67
- Hazard ratio ([1]; KIF6 rs20455 heterozygote, Model 3 adjusted for age, sex, smoking status, history of hypertension, LDL, HDL and history of diabetes): 0.68
- Hazard ratio ([1]; KIF6 rs20455 major homozygote (noncarrier), Model 1 unadjusted): 0.93
- Hazard ratio ([1]; KIF6 rs20455 major homozygote (noncarrier), Model 2 adjusted for age, sex and smoking status): 0.92
- Hazard ratio ([1]; KIF6 rs20455 major homozygote (noncarrier), Model 3 adjusted for age, sex, smoking status, history of hypertension, LDL, HDL and history of diabetes): 0.92
- Hazard ratio ([1]; KIF6 rs20455 minor homozygote, Model 1 unadjusted): 0.65
- Hazard ratio ([1]; KIF6 rs20455 minor homozygote, Model 2 adjusted for age, sex and smoking status): 0.65
- Hazard ratio ([1]; KIF6 rs20455 minor homozygote, Model 3 adjusted for age, sex, smoking status, history of hypertension, LDL, HDL and history of diabetes): 0.63
- On-trial CHD (PROVE-IT patients; ArgArg + ArgTrp, totals 509 (atorvastatin), 502 (pravastatin)): 123 Number of patients
- On-trial CHD (PROVE-IT patients; TrpTrp, totals 359 (atorvastatin), 352 (pravastatin)): 80 Number of patients
